Experimental data as given in PubChem BioAssay (NCI).
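Values below derive from 48-hour exposures of cells grown in 96-well plates, with endpoints linearly interpolated between the two concentrations bracketing the appropriate inhibition level. GI50 = concentration required for 50% inhibition of growth. The concentration for full growth arrest is given as TGI.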

What was measured:
Assay in all cases: inhibition of tumour cell growth, NCI panel, 48 h
786-0 renal = tested on: 786-0 renal
A498 renal = tested on: A498 renal
LOX IMVI melanoma = tested on: LOX IMVI melanoma
MCF7 breast = tested on: MCF7 breast
NCI-H522 lung = tested on: NCI-H522 lung
U251 CNS = tested on: U251 CNS
UO-31 renal = tested on: UO-31 renal
UACC-257 melanoma = tested on: UACC-257 melanoma
UACC-62 melanoma = tested on: UACC-62 melanoma

| SMILES | GI50 (786-0 renal) | TGI (786-0 renal) | GI50 (A498 renal) | TGI (A498 renal) | GI50 (LOX IMVI melanoma) | TGI (LOX IMVI melanoma) | GI50 (MCF7 breast) | TGI (MCF7 breast) | GI50 (NCI-H522 lung) | TGI (NCI-H522 lung) | GI50 (U251 CNS) | TGI (U251 CNS) | GI50 (UO-31 renal) | TGI (UO-31 renal) | TGI (UACC-257 melanoma) | TGI (UACC-62 melanoma) | GI50 (UACC-257 melanoma) | GI50 (UACC-62 melanoma) |
| --- | --- | --- | --- | --- | --- | --- | --- | --- | --- | --- | --- | --- | --- | --- | --- | --- | --- | --- |
| C=C1C(=O)O[C@H]2[C@H]1CC/C(CNC(=O)Cc1c[nH]c3ccccc13)=C\CC[C@@]1(C)O[C@@H]21 | 1.22 µM | 4.98 µM | 13.8 µM | 26.9 µM | 0.355 µM | 1.54 µM | 0.404 µM | 3.3 µM | 0.365 µM | 1.38 µM | 2.52 µM | 16.5 µM | 6 µM | 19.3 µM |  |  |  |  |
| CN(Cc1cnc2nc(N)nc(N)c2n1)c1ccc(C(=O)NC(CCC(=O)O)C(=O)O)cc1C(F)(F)F (configuration not stated) |  | > 100 µM |  | > 100 µM |  | > 100 µM |  | > 100 µM |  | > 100 µM |  | > 100 µM |  | > 100 µM | > 100 µM |  |  |  |
| Cc1ccc2c(c1)C(C)Cc1c(ncnc1-n1cnc3ccccc31)N2C (configuration not stated) | 0.737 µM | 19.8 µM | 0.22 µM | 17.1 µM | 0.705 µM | 16.2 µM | 0.0986 µM | 13.1 µM | 0.204 µM | 10.8 µM | 0.415 µM | 15.9 µM | 0.939 µM | 17.9 µM |  |  |  |  |
| CCOc1ccccc1NC(=O)CC1C(=O)Nc2ccccc2S1=O (configuration not stated) |  | > 100 µM |  | > 100 µM |  | > 100 µM |  |  |  | > 100 µM |  | > 100 µM |  | > 100 µM | > 100 µM | > 100 µM |  |  |
| CC1CC(C2=CC=CCS2)=Nc2ccccc2S1 (configuration not stated) |  | > 100 µM |  | > 100 µM |  | > 100 µM |  |  |  | > 100 µM |  | > 100 µM |  | > 100 µM | > 100 µM | > 100 µM |  |  |
| CN1N=CSC12C(=O)N(c1ccc(Cl)cc1)C(=O)N2c1ccc(Cl)cc1 (configuration not stated) |  | > 100 µM |  | 9.67 µM |  | 8.91 µM |  |  |  | 5.73 µM |  | 53.6 µM |  | 8.08 µM | 33.5 µM | 29.1 µM |  |  |
| COc1ccccc1/C=C(\C#N)c1ccccc1 |  | 42.5 µM |  | 66.1 µM |  | > 100 µM |  |  |  | 44.7 µM |  | > 100 µM |  | 97.5 µM | > 100 µM | > 100 µM |  |  |
| O=C(Nc1ccccc1-c1n[nH]c(=S)[nH]c1=O)C(F)(F)F |  | > 100 µM |  |  |  | > 100 µM |  |  |  | > 100 µM |  | > 100 µM |  | > 100 µM |  | > 100 µM |  |  |
| N#Cc1ccccc1NC(=O)/C(=N\N)C(C(=O)c1ccncc1)C1OC(=O)c2ccccc21 (configuration not stated) |  | > 100 µM |  |  |  | > 100 µM |  |  |  | > 100 µM |  | > 100 µM |  | > 100 µM | > 100 µM | > 100 µM |  |  |
| Cc1cccc(NC(=O)CCc2ccc(N3C(N)=NC(N)=NC3(C)C)cc2)c1 | 18.9 µM | > 100 µM | > 65.6 µM | > 100 µM | 0.654 µM | > 100 µM | 1.24 µM | > 100 µM |  |  | 0.675 µM | > 100 µM | > 100 µM | > 100 µM | > 100 µM | > 100 µM | 28.1 µM | 2.37 µM |
| O=C(Nc1ccc(Cl)cc1Cl)C1C(=O)N(c2ccc(Cl)cc2Cl)C(=O)/C1=N\Nc1ccc([N+](=O)[O-])cc1[N+](=O)[O-] (configuration not stated) |  | > 100 µM |  | > 100 µM |  |  |  |  |  | 71 µM |  | > 100 µM |  | > 100 µM | 98.7 µM | > 100 µM |  |  |
| CC(NS(=O)(=O)c1ccc([N+](=O)[O-])cc1)C(=O)O (configuration not stated) |  | > 100 µM |  | > 100 µM |  | > 100 µM |  |  |  | > 100 µM |  | > 100 µM |  | > 100 µM | > 100 µM | > 100 µM |  |  |
| COc1cccc(C2c3cc4c(cc3OC(C)(N3CCCC3)C2C)OCO4)c1OC (configuration not stated) |  | > 100 µM |  |  |  | 27 µM |  | 98.6 µM |  | 52.3 µM |  | 24.5 µM |  | 37.5 µM | 64.1 µM | 51.5 µM |  |  |
| COC(=O)C1=C(c2ccc(OC)c(OC)c2)OC(c2ccc(OC)c(OC)c2)C1 (configuration not stated) |  | > 100 µM |  | 46.9 µM |  | > 100 µM |  |  |  |  |  | > 100 µM |  | > 100 µM | > 100 µM | > 100 µM |  |  |
| COc1cc(/C=C/c2ccncc2)cc(OC)c1OC |  | > 100 µM |  | > 100 µM |  | > 100 µM |  |  |  | > 100 µM |  | > 100 µM |  | 83.1 µM | > 100 µM | > 100 µM |  |  |
| CC(C)(C)NNC(=O)/C(=C/c1ccc([N+](=O)[O-])cc1)NC(=O)c1ccccc1 |  | > 100 µM |  | > 100 µM |  | 37.2 µM |  |  |  | 73.3 µM |  | > 100 µM |  | > 100 µM | > 100 µM | > 100 µM |  |  |
| C/C(CN1C(=O)c2ccccc2C1=O)=N\NS(=O)(=O)c1ccc(C)cc1 |  | > 100 µM |  | > 100 µM |  |  |  |  |  | > 100 µM |  | > 100 µM |  | > 100 µM | > 100 µM | > 100 µM |  |  |
| N=C(N)c1ccc(OCc2cccc(COc3ccc(C(=N)N)cc3)c2)cc1 | 4.56 µM | 15.1 µM |  |  |  |  | 4.5 µM | 14.9 µM | 16 µM | > 100 µM | 3.73 µM | 17.2 µM | 42.1 µM | > 100 µM | 84.8 µM | 7.99 µM | 14.4 µM | 2.17 µM |
| C[N+](C)(C)CC1CCCC/C1=N\OC(=O)c1ccccc1 (configuration not stated) |  | > 100 µM |  |  |  | > 100 µM |  |  |  | > 100 µM |  | > 100 µM |  | > 100 µM | > 100 µM | > 100 µM |  |  |
| CN1C(=O)CC(c2cccc(C3CC(=O)N(C)C3=O)n2)C1=O (configuration not stated) |  | > 100 µM |  | > 100 µM |  | > 100 µM |  |  |  | > 100 µM |  | > 100 µM |  | > 100 µM | > 100 µM | > 100 µM |  |  |
| O=C(Nc1c(O)[nH]c(=S)[nH]c1=O)c1ccccc1F |  | > 100 µM |  | > 100 µM |  | > 100 µM |  |  |  | > 100 µM |  | > 100 µM |  | > 100 µM | > 100 µM | > 100 µM |  |  |
| NC1=NC(=O)/C(=C/c2ccccc2[N+](=O)[O-])C(N)=N1 |  | > 100 µM |  |  |  | > 100 µM |  |  |  | > 100 µM |  | > 100 µM |  | > 100 µM | > 100 µM | > 100 µM |  |  |
| CC1CC[C@]2(C(=O)O)CCC3(COC(=O)/C=C\c4ccc(O)cc4)C(=CCC4[C@@]5(C)CC[C@H](O)C(C)(C)C5CC[C@]43C)[C@@H]2[C@H]1C (some centres not stated) |  | 43.4 µM |  | 60.4 µM |  | 28.2 µM |  |  |  | 44.6 µM |  | 23.4 µM |  | 32.1 µM | 69.6 µM | 32.6 µM |  |  |
